Measurements as given in patent US20070154567A1, “Use of mercury to treat cancer” (priority 2006, published 2007).

Tested on: apocrine gland adenocarcinoma, metastatic to lymph node
Assay: Oral inorganic mercury (II) treatment of a pet Labrador Retriever after surgical removal of the lump: blood data and clinical follow-up
Type: in vivo, dog
Set-up: MCV / MCH / MCHC / Neutrophils, absolute / Bands / Lymphocytes, absolute / Monocytes, absolute / Eosinophils, absolute / Basophils, absolute: unit not given here
Experimental: A 7 years old, 106 lbs male Labrador Retriever, was diagnosed with apocrine gland adenocarcinoma, metastatic to lymph node. The lump on the neck was surgically removed and biopsy analysis was performed.
The owner chose not to pursue chemo- and radiation therapies. Instead, the dog undertook a full course of inorganic mercury (II) treatment. The treatment consisted of total of 150 days including three 30-day treatment courses and two 30-day interval periods between courses. The formulation contained 1 mM mercury acetate in 20 mM sodium acetate buffer, pH 4.5, with 100 mM sucrose and 150 mM sodium chloride additives. The formulation was introduced orally to the pet three times a day 1 hour before taking food at 0.5 micromole Hg^2+/kg/day.
The blood data at Day 175 were normal (see Table 1).

CC(=O)[O-].CC(=O)[O-].[Hg+2] [inorganic mercury (II), mercury acetate]
health of the dog (13 months after completing the treatment): continues to be healthy
ALT (SGPT) (Day 175): 52 U/L
AST (SGOT) (Day 175): 29 U/L
Albumin (Day 175): 3.9 g/dL
Albumin/Globulin Ratio (Day 175): 1.1
Alkaline Phosphatase (ALP) (Day 175): 94 U/L
BUN/Creatinine Ratio (Day 175): 17
Bands (Day 175): 0
Basophils, absolute (Day 175): 0
CPK (Day 175): 267 U/L
Calcium (Day 175): 10.3 mg/dL
Chloride (Day 175): 115 mE/L
Cholesterol (Day 175): 322 mg/dL
Creatinine (Day 175): 1.2 mg/dL
Eosinophils, (%) (Day 175): 5%
Eosinophils, absolute (Day 175): 445
Globulin (Day 175): 3.4 g/dL
Glucose (Day 175): 105 mg/dL
Hematocrit (Day 175): 53.7%
Hemoglobin (Day 175): 17.7 g/dL
Lymphocytes, (%) (Day 175): 31%
Lymphocytes, absolute (Day 175): 2759
MCH (Day 175): 21.9
MCHC (Day 175): 33.0
MCV (Day 175): 66
Monocytes, (%) (Day 175): 4%
Monocytes, absolute (Day 175): 356
Neutrophils, (%) (Day 175): 60%
Neutrophils, absolute (Day 175): 5340
Phosphorus (Day 175): 4.6 mg/dL
Platelet count (Day 175): 294 10^3/microl
Potassium (Day 175): 5.1 mE/L
RBC (Day 175): 8.1 10^6/microl
Sodium (Day 175): 151 mE/L
Total Billirubin (Day 175): 0.2 mg/dL
Total Protein (Day 175): 7.3 g/dL
Urea Nitrogen (Day 175): 20 mg/dL
WBC (Day 175): 8.9 10^3/microl
blood data (Day 175): normal
metastases on chest x-ray (Day 356, owner's notes): no metastases
metastasis or new mass growth in abdominal, lymph nodes or chest (post treatment evaluation by oncologist and veterinarian, X-rays and ultrasound): no evidence of metastasis or new mass growth
